Laboratory results: patent US20250000936A1, “TREATMENT OF GEOGRAPHIC ATROPHY” (Apellis Pharmaceuticals, Inc., priority 2021, published 2025)

Assays:
Format in all cases: in vivo, human
[1] = system: patients with geographic atrophy (GA) secondary to age-related macular degeneration (AMD); assay: OAKS Phase 3 study: GA lesion growth in study eye by fundus autofluorescence
Excerpt: (§1) This Example describes 12-month results from two Phase 3 multi-center, randomized, double-masked, sham-controlled studies (“DERBY” and “OAKS”) to compare the efficacy and safety of intravitreal APL-2 (pegcetacoplan, also referred to as “Study Drug” in this Example) therapy with sham injections in patients with geographic atrophy (GA) secondary to age-related macular degeneration (AMD).
(§2) To participate in the studies, subjects must have been diagnosed with GA of the macula secondary to AMD in the study eye. At screening, male and female subjects were required to fulfill all of the following inclusion criteria to be eligible for participation in the study. If both eyes met the inclusion criteria, the eye with the worst normal luminance visual acuity at the screening visit was designated as the study eye. If both eyes had the same visual acuity, the right eye was selected as the study eye. Ocular-specific inclusion criteria applied to the study eye only, unless otherwise specified.
The design of the DERBY and OAKS studies are schematically depicted in FIG. 2. […] As part of the screening process, the reading center evaluated FAF, OCT, Digital Color Fundus Photograph (DCFP), Near Infrared Reflectance (NIR), and fluorescein angiography (FA) to provide an objective assessment of subject eligibility. […]
Subjects were analyzed in the treatment arm assigned at randomization. […]

[2] = system: patients with geographic atrophy (GA) secondary to age-related macular degeneration (AMD); assay: as above; conditions: for reduction in GA lesion growth from baseline compared to sham: over 24 months; for reduction in lesion growth in the study eye versus the untreated study eye, after adjusting for sham / reduction in lesion growth in the study eye versus the untreated study eye: bilateral GA; for reduction in lesion growth in the study eye versus the untreated study eye, after adjusting for sham / reduction in lesion growth in the study eye versus the untreated study eye / percentage reduction versus sham pooled: 18 months
[3] = system: patients with geographic atrophy (GA) secondary to age-related macular degeneration (AMD); assay: DERBY and OAKS combined: GA lesion growth and visual function; conditions: for reduction in GA lesion growth from baseline compared to sham: combined analysis (FIG. 30); for reduction in lesion growth, study eye vs untreated fellow eye: bilateral GA, 12 months (FIG. 7D); for reduction in foveal lesion growth vs pooled sham / reduction in extrafoveal GA lesion growth vs pooled sham: month 18; for reduction of GA lesion growth vs pooled sham: months 18-24
Excerpt: as §1, §2
The design of the DERBY and OAKS studies are schematically depicted in FIG. 2. Each subject was assigned a unique screening number after signing the informed consent. Subjects who completed the study screening assessments and met all the eligibility criteria entered the study and were randomized on Day 1. As part of the screening process, the reading center evaluated FAF, OCT, Digital Color Fundus Photograph (DCFP), Near Infrared Reflectance (NIR), and fluorescein angiography (FA) to provide an objective assessment of subject eligibility. Subjects were randomized 2:2:1:1 to receive treatment with Study Drug monthly (PM), Study Drug every other month (PEOM), sham injection monthly (SM) or sham injection every other month (SEOM), respectively.
The Study Drug was pegcetacoplan (also referred to as “APL-2”) (see FIG. 1), which was provided for intravitreal injection at 15 mg/0.1 mL (150 mg/mL) as a sterile, isotonic solution of pegcetacoplan in acetate-buffer, pH 5.0, containing trehalose, supplied in stoppered glass vials.
The primary endpoint in the studies was the change from baseline to Month 12 in total area of GA lesion(s) in the study eye (in mm^2) based on Fundus Autofluorescence (FAF). Key secondary endpoints included change from baseline in the mean threshold sensitivity of all points (study eye) assessed by mesopic microperimetry at Month 24; change from baseline in monocular maximum reading speed (study eye), at Month 24 as assessed by MNRead or Radner reading charts (in select sites); change from baseline in mean FRI Index score (subject-level assessment) at Month 24; and change from baseline in NL-BCVA score (study eye) at Month 24 as assessed by Early Treatment Diabetic Retinopathy Study (ETDRS) chart. Additional secondary endpoints included change from baseline in LL-BCVA score (study eye) over time as assessed by ETDRS chart; change from baseline in the total area of GA lesion(s) in the study eye (in mm^2) as assessed by FAF over time other than Month 12; change from baseline in monocular critical print size (study eye), as assessed by MNRead or Radner reading charts (in select sites) over time; change from baseline in the NEI VFQ-25 distance activity subscale score (in select sites) (subject level assessment) over time; change from baseline in the number of scotomatous points assessed by mesopic microperimetry over time; and change from baseline in the mean threshold sensitivity within 500 microns outside the GA lesion, (perilesional points) assessed by mesopic microperimetry over time.
Two sham treatment arms (SM and SEOM) were pooled into a single control (Sham) group for analyses.
Subjects were analyzed in the treatment arm assigned at randomization.
Unless otherwise noted, hypothesis testing and estimation of treatment effects will be performed with a mixed effect model for repeated measure (MMRM) that includes data from all three treatment arms (PM, PEOM, and Sham). […]

[4] = post-hoc quartiles of GA lesion growth over 18 months (FIG. 27)

Poly(oxy-1,2-ethanediyl), α-hydro-ω-hydroxy-, 15,15′-diester with N-acetyl-L-isoleucyl-L-cysteinyl-L-valyl-1-methyl-L-tryptophyl-L-glutaminyl-L-α-aspartyl-L-tryptophylglycyl-L-alanyl-L-histidyl-L-arginyl-L-cysteinyl-L-threonyl-2-[2-(2-aminoethoxy) ethoxy]acetyl-N^6-carboxy-L-lysinamide cyclic (2->12)-(disulfide) [pegcetacoplan]
reduction in GA lesion growth versus sham ([1]; distance ≤250 microns, every other month, p=0.0008): 19%
reduction in GA lesion growth versus sham ([1]; lesion distance to foveal center point >250 microns, monthly, p=0.0012): 30%
reduction of GA lesion growth versus sham ([2]; EOM, months 18-24, p=0.0007): 25%
reduction in GA lesion growth from baseline compared to sham ([2]; EOM, p 0.0002 nominal): 18%
reduction in lesion growth in the study eye versus the untreated study eye, after adjusting for sham ([2]; every other month): 15%
reduction in lesion growth in the study eye versus the untreated study eye ([2]; every other month, p=0.1274): 7%
reduction in lesion growth in the study eye versus the untreated study eye, after adjusting for sham ([2]; monthly): 26%
reduction in lesion growth in the study eye versus the untreated study eye ([2]; monthly, p<0.0001): 19%
reduction in GA lesion growth versus sham ([2]; distance >250 microns, every other month, p=0.1203): 15%
reduction in GA lesion growth versus sham ([2]; distance ≤250 microns, monthly, p=0.0002): 22%
percentage reduction versus sham pooled ([2]; every other month, >50 microns, p=0.0430): 17%
percentage reduction versus sham pooled ([2]; every other month, >100 microns, p=0.0338): 18%
percentage reduction versus sham pooled ([2]; every other month, >150 microns, p=0.0575): 17%
percentage reduction versus sham pooled ([2]; every other month, >200 microns, p=0.1002): 15%
reduction in GA lesion growth vs pooled sham ([2]; every other month, month 12, p=0.0052): 16%
reduction in extrafoveal GA lesion growth vs pooled sham ([2]; every other month, month 18, p 0.0422): 17%
reduction in GA lesion growth, covariate-adjusted post-hoc analysis ([2]; every other month, month 18, p=0.0002): 18%
reduction in foveal GA lesion growth, covariate-adjusted ([2]; every other month, month 18, p=0.0008): 19%
reduction in GA lesion growth vs pooled sham ([2]; every other month, month 18, p=0.0018 nominal): 16%
reduction in foveal GA lesion growth vs pooled sham ([2]; every other month, month 18, p=0.0020): 19%
reduction in extrafoveal GA lesion growth, covariate-adjusted ([2]; every other month, month 18, p=0.0673): 15%
percentage reduction versus sham pooled ([2]; monthly, >100 microns, p<0.0001): 34%
percentage reduction versus sham pooled ([2]; monthly, >150 microns, p<0.0001): 34%
percentage reduction versus sham pooled ([2]; monthly, >200 microns, p<0.0001): 34%
percentage reduction versus sham pooled ([2]; monthly, distance to foveal center point >50 microns, p<0.0001): 33%
reduction in GA lesion growth vs pooled sham ([2]; monthly, month 12, p=0.0003): 22%
reduction in GA lesion growth, covariate-adjusted post-hoc analysis ([2]; monthly, month 18, p<0.0001): 26%
reduction in extrafoveal GA lesion growth vs pooled sham ([2]; monthly, month 18, p<0.0001): 33%
reduction in extrafoveal GA lesion growth, covariate-adjusted ([2]; monthly, month 18, p<0.0001): 33%
reduction in GA lesion growth vs pooled sham ([2]; monthly, month 18, p<0.0001 nominal): 22%
reduction in foveal GA lesion growth, covariate-adjusted ([2]; monthly, month 18, p=0.0044): 19%
reduction in foveal GA lesion growth vs pooled sham ([2]; monthly, month 18, p=0.0105): 18%
reduction of GA lesion growth versus sham ([2]; monthly, months 18-24, p=0.0080): 24%
reduction in GA lesion growth from baseline compared to sham ([2]; monthly, p<0.0001 nominal): 22%
decrease of patients in Q4 (fast progressors), relative to sham [2, 4]: 43%
increase of patients in Q1 (slow progressors), relative to sham [2, 4]: 83%
reduction in GA lesion growth from baseline compared to sham ([3]; EOM, p<0.0001): 24%
reduction in GA lesion growth from baseline compared to sham ([3]; monthly, p<0.0001): 30%
key secondary endpoints measuring visual function, pegcetacoplan vs sham ([3]; combined, 24 months (FIG. 31, NL-BCVA)): no clinically meaningful difference
reduction in lesion growth, study eye vs untreated fellow eye ([3]; combined, every other month): 11%
reduction in lesion growth, study eye vs untreated fellow eye ([3]; combined, monthly): 16%
reduction in GA lesion growth vs pooled sham ([3]; combined, every other month, month 12, p<0.0012): 14%
reduction in foveal lesion growth vs pooled sham ([3]; combined, every other month, p 0.0069): 13%
reduction in extrafoveal GA lesion growth vs pooled sham ([3]; combined, every other month, p=0.0006): 21%
reduction in GA lesion growth vs pooled sham ([3]; combined, every other month, months 0-6 segment): 12%
reduction in GA lesion growth vs pooled sham ([3]; combined, every other month, months 12-18 segment): 17%
reduction of GA lesion growth vs pooled sham ([3]; combined, extrafoveal lesions, EOM): 28%
reduction in GA lesion growth vs pooled sham ([3]; combined, extrafoveal lesions, every other month, 12 months, p=0.0002): 23%
reduction in GA lesion growth vs pooled sham ([3]; combined, extrafoveal lesions, monthly, 12 months, p<0.0001): 26%
reduction of GA lesion growth vs pooled sham ([3]; combined, extrafoveal lesions, monthly): 28%
reduction of GA lesion growth vs pooled sham ([3]; combined, foveal lesions, EOM): 28%
reduction of GA lesion growth vs pooled sham ([3]; combined, foveal lesions, monthly): 34%
reduction in GA lesion growth vs pooled sham ([3]; combined, monthly, month 12, p<0.0001): 17%
reduction in extrafoveal GA lesion growth vs pooled sham ([3]; combined, monthly, p<0.0001): 26%
reduction in foveal lesion growth vs pooled sham ([3]; combined, monthly, p=0.0070): 13%
reduction in GA lesion growth vs pooled sham ([3]; combined, monthly, months 0-6 segment (FIG. 12B)): 13%
reduction in GA lesion growth vs pooled sham ([3]; combined, monthly, months 12-18 segment (FIG. 12B)): 21%
